Read-outs that look alike come from different tables or passages of the source.
Tests used:
Dog PK = type: in vivo, Beagle dogs; settings: for AUC(0-t) / Cmax: beagle, plasma
Description: Biological Example 7. Dog PK
Selected exemplified compounds of the present disclosure were also tested in dog for pharmacokinetic studies. The Beagle dogs were fasted overnight with free access to drinking water prior to treatment. All the dosing solutions were freshly prepared prior to dose administration. In intravenous administration animal group were given a single dose of compound at 1 mg·kg-1. Blood for plasma samples were collected at pre-dose, 5, 15, 30 min, 1, 2, 4, 8, 12 and 24 h through vein into tubes anticoagulated with EDTA-K2. In intragastric administration animal group were given a single dose of compound at 5 mg·kg-1. Blood for plasma samples (˜0.5 mL) were collected at pre-dose, 15, 30 min, 1, 2, 4, 8, 12 and 24 h post-dose through vein into tubes anticoagulated with EDTA-K2. Blood samples were inverted several times and were held on wet ice pending centrifugation. The samples were centrifuged (within 20 minutes of collection) in a centrifuge set at 4° C. for 10 minutes at 1500-1600 g to obtain plasma. Plasma samples were transferred and frozen immediately after separation and stored in a freezer set at below −70° C. prior to analysis.

IL-2 reporter (JAK1/3) = experiment: IL-2 reporter assay in HEK-Blue IL-2 cells; type: cell-based
Description: (§1) IL-2 reporter assay. Seed HEK-Blue™ IL-2 Cells (1-3×10^4 cells/well/[…]) to 96 cell plate with DMEM (10% HFBS+1% PS) and incubate overnight at 5% CO2&37° C. Diluent compounds in DMSO. Three times dilution and 10 doses. Add compounds to cell plate and incubate 1 h at 5% CO2&37° C. Add IL-2 (1 ng/mL) to cell plate and incubate overnight at 5% CO2&37° C. Prepare QUANTI-Blue Solution: add 100 μl of QB reagent and 100 μl of QB buffer to 9800 μl sterile water. Use cell supernatant and QUANTI-Blue solution in proportion of 1 to 10, incubate 2 h at 37° C. Read OD630.

IFNγ reporter (JAK1/2) = experiment: IFN-γ reporter assay in HEK-Dual IFN-γ cells; type: cell-based
Description: as §1, with “IFN-γ” for “IL-2”, “HEK-Dual™ IFN-γ” for “HEK-Blue™ IL-2”, “IFN-γ (0.1” for “IL-2 (1”

[1] = tested on: IL-23 reporter (JAK2/Tyk2); experiment: IL-23 induced STAT3 QUANTI-Blue reporter assay in HEK-Blue IL-23 cells; type: cell-based
Description: Biological Example 2. IL-23 Induced STAT3 QUANTI-Blue in HEK-Blue™ IL-23 Cells
HEK-Blue™ IL-23 cells were prepared at 2×10^5 cells/ml for adding 5000 cell/well and incubate plates containing compounds+cells for 1 hour at 37° C. Prepare IL-23 (treatment at final conc. 0.1 ng/mL) during incubation and add 2 ul per well of prepared cytokine in media to appropriate wells. The plate was incubated for overnight at 37° C. The next day, QUANTI-Blue solution was prepared. 18 ul of QUANTI-Blue solution per well was added into a new 384-well clear flat bottom plate, followed by addition of 2 ul of induced and treated HEK-Blue cell supernatant from overnight plate. The plate was incubated at 37° C. for 2 hours and SEAP levels determined.

[2] = target: N-terminal His-tagged TYK2 pseudokinase domain (Homo sapiens (Human), UniProt P29597); experiment: TYK2 JH2 domain SPA binding assay; settings: displacement of H3 probe
Chain of N-terminal His-tagged TYK2 pseudokinase domain (P29597 589-875): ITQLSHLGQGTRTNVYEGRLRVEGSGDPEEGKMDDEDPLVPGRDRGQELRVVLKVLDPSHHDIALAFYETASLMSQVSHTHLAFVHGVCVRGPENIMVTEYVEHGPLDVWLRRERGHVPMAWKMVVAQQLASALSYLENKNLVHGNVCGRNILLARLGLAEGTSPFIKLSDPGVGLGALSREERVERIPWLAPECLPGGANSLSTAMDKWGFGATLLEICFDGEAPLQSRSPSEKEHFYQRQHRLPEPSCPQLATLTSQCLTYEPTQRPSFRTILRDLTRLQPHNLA
Description: TYK2 JH2 Domain Binding Assay
After incubating at room temperature for 30 min, the inhibition was calculated by the displacement of [3H] 3 binding as determined by scintillation counting.

Jak1 JH2 = Jak1 JH2 (Homo sapiens (Human), UniProt P23458); experiment: Jak1 JH2 HTRF binding; settings: biochemical assay
Chain of Jak1 JH2 (P23458 583-855): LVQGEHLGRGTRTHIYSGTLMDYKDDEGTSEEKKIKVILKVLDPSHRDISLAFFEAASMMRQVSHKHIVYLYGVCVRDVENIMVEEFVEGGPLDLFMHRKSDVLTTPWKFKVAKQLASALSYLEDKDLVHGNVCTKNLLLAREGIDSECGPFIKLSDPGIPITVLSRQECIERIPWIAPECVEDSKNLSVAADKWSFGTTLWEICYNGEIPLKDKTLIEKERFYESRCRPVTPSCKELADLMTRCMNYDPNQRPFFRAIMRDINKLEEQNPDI

IL-23-induced psoriasis = experiment: In vivo mouse psoriasis model induced by human IL-23; settings: mice, 7.5, 15 and 30 mg/kg BID oral gavage
Description: Biological Example 6. In Vivo Mouse Psoriasis Model Selected exemplified compounds of the present disclosure were also tested in a mouse psoriasis model induced by human IL-23. Psoriasis was induced in 6-8-week-old C57BL/6J female mice (Charles River) by intradermal injection of recombinant human IL-23 into the left ear. IL-23 injections were administered every other day from day 1 through day 9 of the study. Selected compounds at 7.5, 15, and 30 mg/kg, with 15 mg/kg BMS986165 as positive control were dosed BID by oral gavage, with the first dose given the evening before first IL-23 injection. Ear thickness was measured every other day, prior to the ear injection.

[3] = tested on: IFNα/β reporter (JAK1/Tyk2); experiment: IFN-alpha/beta reporter assay in HEK-Blue IFN-a/b cells; type: cell-based; settings: cellular assay
Description: as §1, with “IFN-alpha/beta” for “IL-2”, “IFN-a/b cells” for “IL-2 Cells”, “IFN-alpha/beta (5 U/ml)” for “IL-2 (1 ng/mL)”

[4] = tested on: IL-12/IL-18 induced IFN-gamma production; experiment: In vivo inhibition of IL-12/IL-18 induced IFN-gamma; settings: mice, oral; for inhibition of IFNγ production (reduction compared to vehicle treated group): 10 mpk
Description: Biological Example 5. In Vivo Inhibition of IL-12/IL-18 Induced IFN-Gamma
Selected exemplified compounds of the present disclosure (compound Examples 4 and 5) and BMS986165 were dosed orally to female C57BL/6J mice (Charles River). One hour later, 0.05 μg of recombinant rat IL-12 was administered IV. Another hour later following IL-12 administration, 1 μg of recombinant rat IL-18 was administered IV. Three hours later, blood was collected and serum were obtained by centrifugation for analysis of IFNγ by ELISA.

Mouse PK = type: in vivo
[5] = intravenous, 1 mg/kg single dose, read-out: AUC0-t (IV)
[6] = po, intragastric, 5 mg/kg single dose
[7] = po, intragastric, 5 mg/kg single dose, read-out: AUC0-t (PO)
[8] = HEK-Blue, cellular assay, read-out: IL-2 reporter assay (JAK1/3) IC50
[9] = cellular assay, read-out: IFNγ reporter assay (JAK1/2) IC50
[10] = HEK-Blue IL-23, cellular assay, Table 3 and text, read-out: IL-23 reporter assay (JAK2/Tyk2) IC50
[11] = HEK-Blue IL-23 cells, Table 2, read-out: IL23 reporter assay_IC50
[12] = HEK-Blue, read-out: IC50 in IL-2 reporter assay (JAK1/3)
[13] = HEK-Blue IL-23, HEK-Blue IL-23 cells, Table 2, read-out: IL23 reporter assay_IC50
[14] = cellular assay, Table 3 and text, read-out: IL-23 reporter assay (JAK2/Tyk2) IC50

[2H]C([2H])([2H])NC(=O)c1nnc(NC(=O)C2CC2)cc1Nc1cccc(-c2ncn(C)n2)c1OC [BMS-986165, reference compound]
AUC(0-t) (Dog PK; [5]): 3.8 µM·h | Cmax (Dog PK; [6]): 2.7 µM | AUC(0-t) (Dog PK; [7]): 22.3 µM·h | IC50 (IL-2 reporter (JAK1/3); [8]): 221 nM | IC50 (IL-2 reporter (JAK1/3); cellular assay, read-out: IL-2 reporter assay (JAK1/3) IC50): 221 nM | IC50 (IFNγ reporter (JAK1/2); [9]): 1090 nM | IC50 [1, 10]: 3.5 nM | IC50 [1, 11]: 3.76 nM

[2H]C([2H])([2H])NC(=O)c1cnc(NC(=O)C2CC2)cc1Nc1cccc(C(=O)NCc2ccc(NC(=O)C=C)cn2)c1OC [Example 1, 4-((3-(((5-acrylamidopyridin-2-yl)methyl)carbamoyl)-2-methoxyphenyl)amino)-6-(cyclopropanecarboxamido)-N-(methyl-d3)nicotinamide]
IC50 [2]: 27 nM | IC50 [1, 11]: 318 nM

[2H]C([2H])([2H])NC(=O)c1cnc(NC(=O)C2CC2)cc1Nc1cccc(C(=O)NCc2ccc(NC(=O)CCl)cn2)c1OC [Example 2, 4-((3-(((5-(2-chloroacetamido)pyridin-2-yl)methyl)carbamoyl)-2-methoxyphenyl)amino)-6-(cyclopropanecarboxamido)-N-(methyl-d3)nicotinamide]
IC50 [2]: 5.56 nM | IC50 [1, 11]: 15.7 nM

[2H]C([2H])([2H])NC(=O)c1cnc(NC(=O)C2CC2)cc1Nc1cccc(-c2cc(=O)n(C3CC3)cn2)c1OC [Example 3, 6-(cyclopropanecarboxamido)-4-((3-(1-cyclopropyl-6-oxo-1,6-dihydropyrimidin-4-yl)-2-methoxyphenyl)amino)-N-(methyl-d3)nicotinamide]
IC50 [2]: 16.1 nM | IC50 [1, 11]: 6.5 nM

[2H]C([2H])([2H])NC(=O)c1nnc(NC(=O)C2CC2)cc1Nc1cccc(-c2cc(=O)n(C3CC3)cn2)c1OC [Example 4, 6-(cyclopropanecarboxamido)-4-((3-(1-cyclopropyl-6-oxo-1,6-dihydropyrimidin-4-yl)-2-methoxyphenyl)amino)-N-(methyl-d3)pyridazine-3-carboxamide]
IC50 (Jak1 JH2): 4.99 nM | protection from IL-23-induced psoriasis (ear thickness), result in words (IL-23-induced psoriasis): dose-dependently protect mice from IL-23-induced psoriasis | IC50 ([3]; HEK-Blue): ~4 nM | IC50 [3]: 3.7 nM | inhibition of IFNγ production ([4]; 2.5 mpk): 52.7% | inhibition of IFNγ production ([4]; 5 mpk): 76.0% | inhibition of IFNγ production ([4]; 7.5 mpk): 88.6% | inhibition of IFNγ production (reduction compared to vehicle treated group) [4]: 93.3% | IC50 (IL-2 reporter (JAK1/3); [8]): 696 nM | IC50 (IL-2 reporter (JAK1/3); [12]): > 10000 nM | IC50 (IFNγ reporter (JAK1/2); [9]): > 10000 nM | IC50 (IFNγ reporter (JAK1/2); read-out: IC50 in IFN-gamma reporter assay (JAK1/2)): > 10000 nM | IC50 [1, 13]: 18 nM | IC50 [1, 10]: ~18 nM | IC50 [1, 14]: 18.3 nM

[2H]C([2H])([2H])NC(=O)c1nnc(NC(=O)C2CC2)cc1Nc1cccc(-n2cnc(C)n2)c1OC [Example 5, 6-(cyclopropanecarboxamido)-4-((2-methoxy-3-(3-methyl-1H-1,2,4-triazol-1-yl)phenyl)amino)-N-(methyl-d3)pyridazine-3-carboxamide]
IC50 (Jak1 JH2): 13.2 nM | mouse PK profile compared to BMS986165, in words (Mouse PK): about the same with BMS986165 | pharmacokinetic profile in dog compared to BMS986165, in words (Dog PK): superior pharmacokinetic profile in dog compared to BMS986165 | AUC(0-t) (Dog PK; [5]): 6.4 µM·h | Cmax (Dog PK; [6]): 7.87 µM | AUC(0-t) (Dog PK; [7]): 47.5 µM·h | protection from IL-23-induced psoriasis (ear thickness), result in words (IL-23-induced psoriasis): dose-dependently protect mice from IL-23-induced psoriasis | IC50 ([3]; HEK-Blue): ~5 nM | IC50 [3]: 4.6 nM | inhibition of IFNγ production (reduction compared to vehicle treated group) [4]: greater than 93% | inhibition of IL-12/IL-18 induced IFNγ production, result in words ([4]; positive control BMS986165): efficacy similar to the positive control tested | IC50 (IL-2 reporter (JAK1/3); [8]): > 10000 nM | IC50 (IL-2 reporter (JAK1/3); [12]): > 10000 nM | IC50 (IFNγ reporter (JAK1/2); [9]): > 10000 nM | IC50 [1, 13]: 6 nM | IC50 [1, 10]: ~6 nM | IC50 [1, 14]: 6.1 nM

[2H]C([2H])([2H])NC(=O)c1cnc(NC(=O)C2CC2)cc1Nc1cc(F)cc(-c2cc(=O)n(C3CC3)cn2)c1OC [Example 6]
IC50 [2]: 30 nM | IC50 [1, 11]: 18 nM

[2H]C([2H])([2H])NC(=O)c1nnc(NC(=O)C2CC2)cc1Nc1cc(F)cc(C2=NC3(CC3)C(=O)N2)c1OC [Example 9]
IC50 [1, 11]: 318 nM

[2H]C([2H])([2H])NC(=O)c1nnc(NC(=O)C2CC2)cc1Nc1cccc(C2=NC3(CC3)C(=O)N2)c1OC [Example 10]
IC50 [1, 11]: 74 nM

[2H]C([2H])([2H])NC(=O)c1cnc(NC(=O)C2CC2)cc1Nc1cccc(C2=NC3(CC3)C(=O)N2)c1OC [Example 11]
IC50 [1, 11]: 111 nM

[2H]C([2H])([2H])NC(=O)c1nnc(NC(=O)C2CC2)cc1Nc1cc(F)cc(-n2cnc(C)n2)c1OC [Example 12]
IC50 [1, 11]: 15 nM

[2H]C([2H])([2H])NC(=O)c1nnc(NC(=O)C2CC2)cc1Nc1cccc(-n2ncc(C)n2)c1OC [Example 13]
IC50 [1, 11]: 38 nM

[2H]C([2H])([2H])NC(=O)c1nnc(NC(=O)C2CC2)cc1Nc1cc(F)cc(-n2ncc(C)n2)c1OC [Example 14]
IC50 [1, 11]: 71 nM

[2H]C([2H])([2H])NC(=O)c1nnc(NC(=O)C2CC2)cc1Nc1cccc(-c2nc(=O)n(C)[nH]2)c1OC [Example 15]
IC50 [1, 11]: 25 nM

— patent publication US20240246944A1, “AMINO HETEROARYL COMPOUNDS AND COMPOSITIONS” (Anrui Biomedical Technology (Guangzhou) Co., Ltd., priority 2021, published 2024)
